According to patent US8778957B2, “CGRP receptor antagonists” (Merck Sharp & Dohme Corp., priority 2009, dated 2014):

Each molecule was assayed against recombinant human CL receptor/RAMP1 (Homo sapiens (Human), UniProt O60894+Q16602) (assay: Recombinant receptor binding assay (125I-hCGRP)). Conditions: membranes of HEK 293 cells expressing human CL receptor/RAMP1, 10 pM 125I-hCGRP.
recombinant human CL receptor/RAMP1, sequence (Q16602 23-461): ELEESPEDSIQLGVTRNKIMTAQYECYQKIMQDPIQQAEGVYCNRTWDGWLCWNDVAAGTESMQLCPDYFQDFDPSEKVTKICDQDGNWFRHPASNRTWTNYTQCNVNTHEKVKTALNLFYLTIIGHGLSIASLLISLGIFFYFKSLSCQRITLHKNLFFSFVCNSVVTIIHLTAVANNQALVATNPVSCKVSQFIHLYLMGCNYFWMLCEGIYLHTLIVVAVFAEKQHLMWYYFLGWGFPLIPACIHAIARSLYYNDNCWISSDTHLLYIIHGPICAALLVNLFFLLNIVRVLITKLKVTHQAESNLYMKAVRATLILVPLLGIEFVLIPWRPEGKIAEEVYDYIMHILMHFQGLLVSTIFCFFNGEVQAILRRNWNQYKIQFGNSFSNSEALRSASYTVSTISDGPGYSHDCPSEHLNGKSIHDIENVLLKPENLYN
recombinant human CL receptor/RAMP1, sequence (O60894 27-148): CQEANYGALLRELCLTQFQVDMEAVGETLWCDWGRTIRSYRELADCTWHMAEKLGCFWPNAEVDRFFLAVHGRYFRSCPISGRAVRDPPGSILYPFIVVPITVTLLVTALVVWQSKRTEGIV
Method: RECOMBINANT RECEPTOR: Human CL receptor (Genbank accession number L76380) was subcloned into the expression vector pIREShyg2 (BD Biosciences Clontech) as a 5′NheI and 3′ PmeI fragment. Human RAMP 1 (Genbank accession number AJ001014) was subcloned into the expression vector pIRESpuro2 (BD Biosciences Clontech) as a 5′NheI and 3′NotI fragment. HEK 293 cells (human embryonic kidney cells; ATCC #CRL-1573) were cultured in DMEM with 4.5 g/L glucose, 1 mM sodium pyruvate and 2 mM glutamine supplemented with 10% fetal bovine serum (FBS), 100 units/mL penicillin and 100 μg/mL streptomycin, and maintained at 37° C. and 95% humidity. Cells were subcultured by treatment with 0.25% trypsin with 0.1% EDTA in HBSS. Stable cell line generation was accomplished by co-transfecting 10 μg of DNA with 30 μg Lipofectamine 2000 (Invitrogen) in 75 cm^2 flasks. CL receptor and RAMP1 expression constructs were co-transfected in equal amounts. Twenty-four hours after transfection the cells were diluted and selective medium (growth medium+300 μg/mL hygromycin and 1 μg/mL puromycin) was added the following day. A clonal cell line was generated by single cell deposition utilizing a FACS Vantage SE (Becton Dickinson). Growth medium was adjusted to 150 μg/mL hygromycin and 0.5 μg/mL puromycin for cell propagation.
RECOMBINANT RECEPTOR BINDING ASSAY: Cells expressing recombinant human CL receptor/RAMP1 were washed with PBS and harvested in harvest buffer containing 50 mM HEPES, 1 mM EDTA and Complete protease inhibitors (Roche). The cell suspension was disrupted with a laboratory homogenizer and centrifuged at 48,000 g to isolate membranes. The pellets were resuspended in harvest buffer plus 250 mM sucrose and stored at −70° C. For binding assays, 20 μg of membranes were incubated in 1 ml binding buffer (10 mM HEPES, pH 7.4, 5 mM MgCl2, and 0.2% BSA) for 3 hours at room temperature containing 10 pM ^125I-hCGRP (GE Healthcare) and antagonist. The assay was terminated by filtration through 96-well GFB glass fiber filter plates (PerkinElmer) that had been blocked with 0.05% polyethyleneimine. The filters were washed 3 times with ice-cold assay buffer (10 mM HEPES, pH 7.4 and 5 mM MgCl2). Scintillation fluid was added and the plates were counted on a Topeount (Packard). Non-specific binding was determined and the data analysis was carried out with the apparent dissociation constant (Ki) determined by using a non-linear least squares fitting the bound CPM data to the equation below:
[formula] Where Y is observed CPM bound, Ymax is total bound counts, Ymin is non specific bound counts, (Ymax−Ymin) is specific bound counts, % Imax is the maximum percent inhibition, % I min is the minimum percent inhibition, radiolabel is the probe, and the Kd is the apparent dissociation constant for the radioligand for the receptor as determined by Hot saturation experiments.
For `CN1C(=O)NC(=O)C12Cc1cc3ccc(CN4CCC(Cc5ccccc5)CC4)nc3cc1C2` (racemic) [Example 7, (±)-2-[(4-Benzylpiperidin-1-yl)methyl]-3′-methyl-6,8-dihydro-2′H,5′H-spiro[cyclopenta[g]quinoline-7,4′-imidazolidine]-2′,5′-dione], the Ki was 3.8 µM.
Work on `CC1(C)CN(Cc2ccc3cc4c(cc3n2)C[C@]2(C4)C(=O)Nc3ncccc32)[C@@H](Cc2ccccc2)C(=O)N1` [Example 3, (7S)-2-{[(2S)-2-Benzyl-5,5-dimethyl-3-oxopiperazin-1-yl]methyl}-6,8-dihydrospiro[cyclopenta[g]quinoline-7,3′-pyrrolo[2,3-b]pyridin]-2′(1′H)-one] yielded a Ki of 0.00077 µM.
`CN1C(=O)NC(=O)[C@]12Cc1cc3ccc(CN4C(=O)C(C)(C)Nc5ccccc54)nc3cc1C2` [Example 8, (7R)-2-[(3,3-Dimethyl-2-oxo-3,4-dihydroquinoxalin-1(2H)-yl)methyl]-3′-methyl-6,8-dihydro-2′H,5′H-spiro[cyclopenta[g]quinoline-7,4′-imidazolidine]-2′,5′-dione] was tested, and the Ki was 0.035 µM.
`O=C1Nc2ncccc2C12Cc1cc3ccc(CN4CCc5c([nH]c6ccccc56)C4)nc3cc1C2` (stereo not shown) [Example 45] showed a Ki of 0.18 µM.
Work on `CC(C)(C)OC(=O)N1CCN(Cc2ccc3cc4c(cc3n2)C[C@]2(C4)C(=O)Nc3ncccc32)CC1c1ccccc1` (stereo partly shown) [Example 61] yielded a Ki of 0.058 µM.
In the case of `O=C1Nc2ncccc2[C@@]12Cc1cc3ccc(CN4CCNCC4c4ccccc4)nc3cc1C2` (stereo partly shown) [Example 64], the Ki is reported as 0.0066 µM.
For `O=C1NC2(CCCC2)CN(Cc2ccc3cc4c(cc3n2)C[C@]2(C4)C(=O)Nc3ncccc32)C1c1ccccc1` (stereo partly shown) [Example 69], the Ki was 0.043 µM.
With `O=C1Nc2ncccc2[C@@]12Cc1cc3ccc(CN4CCNCC4)nc3cc1C2` [Example 76] the Ki was 0.00073 µM.
`O=C1N[C@H](Cc2ccccc2)CN(Cc2ccc3cc4c(cc3n2)C[C@]2(C4)C(=O)Nc3ncccc32)C1c1ccccc1` (stereo partly shown) [Example 84] gave a Ki of 0.00072 µM.
`O=C1NC2(CCCC2)CN(Cc2ccc3cc4c(cc3n2)C[C@]2(C4)C(=O)Nc3ncccc32)C1Cc1ccccc1` (stereo partly shown) [Example 87] gave a Ki of 0.00034 µM.
Work on `O=C1NC2(CCCC2)CN(Cc2ccc3cc4c(cc3n2)C[C@]2(C4)C(=O)Nc3ncccc32)[C@@H]1Cc1ccccc1` [Example 88] yielded a Ki of 0.0026 µM.
With `CC1(Cc2ccccc2)C(=O)NC2(CCCC2)CN1Cc1ccc2cc3c(cc2n1)C[C@]1(C3)C(=O)Nc2ncccc21` (stereo partly shown) [Example 95] the Ki was 0.017 µM.
In the case of `O=C1CC2(CCN(Cc3ccc4cc5c(cc4n3)CC3(C5)C(=O)Nc4ncccc43)CC2)Oc2ccccc21` (stereo not shown) [Example 114], the Ki is reported as 15 µM.
